From ChEMBL document CHEMBL1158293, “Isolation and structure of prorocentrolide B, a fast-acting toxin from Prorocentrum maculosum” (J Nat Prod, 1996) come the findings set out here.

The data set concerns Mus musculus. The data set is described as follows: Toxicity in ip dosed CD1 mouse. The data set is classed as organism-based. To be noted: in vivo.

Structures are written as SMILES.

In the case of `C=C1CCC2OC(CC3=CC4/C(C)=C/CC(C)CC(/C=C/C(O)C5CC(O)C(O)C(CCC(O)/C=C/C(C)=C/CCC6=NCCC(C3)C64C)O5)OC(=O)CC3OC(C(O)CC1C)C(O)C3OS(=O)(=O)O)C(O)CC2O` (stereo unspecified) [PROROCENTROLIDE B], the Activity entry is on record as “Toxic”.
